From US11470844B2, “Vespidae wasp repellent” (KINP CO., LTD, priority 2015, dated 2022)

Tests used:
Type in all cases: in vivo
Vespa mandarinia worker = assay: Black ball nest disturbance, Experiment 1 (ball with adsorbed alarm pheromone); conditions: for total number of workers alighting on the black ball for attack: alarm pheromone adsorbed ball
Experimental: The experiment was conducted with utilizing a nest of Vespa mandarinia found in Kagawa Prefecture Kinbuchi Forest Park in Takamatsu City Kagawa Prefecture on Oct. 24, 2014. Since the nest was built in the ground, the nest could not be found except for the entrance thereof.
A vinyl ball of which diameter was 13 cm and which was coated with black lacquer was hung on the tip of a fishing rod having a length of 11 m. Hereinafter, the ball was abbreviated as “black ball”. After distilled water was sprayed on the entire surface, the vicinity of the nest entrance was disturbed by using the black ball. Specifically, the nest was disturbed by vibrating the black ball about 50 cm before the nest entrance in the air for about 10 seconds or vibrating the black ball in contact with the nest entrance for about 10 seconds. After the black ball was vibrated in the above-described conditions for about 10 seconds, the black ball was moved to the air of about 1 m before the nest entrance, and the behavior of the Vespa mandarinia worker against the black ball was shot and recorded for 2 minutes with a video camera. In the above condition, both of the black balls used in both conditions were attacked by the Vespa mandarinia workers and it is considered that the alarm pheromone was adsorbed on the black balls. Then, the black ball was kept away from the nest so that all the Vespa mandarinia workers were separated, 2-phenylethanol was sprayed on the entire surface, and the behavior of the workers against the black ball was similarly observed. The total number of workers alighting on the surface of the hemispherical side observable by the video image for attack during the vibration of the black ball was counted.

[1] = system: Vespa simillima xanthoptera Cameron worker; assay: Black ball nest disturbance, Experiment 1; conditions: previously attacked ball
Experimental: The experiment was also conducted with utilizing a nest of Vespa simillima xanthoptera Cameron in Kagawa Prefecture Kinbuchi Forest Park in Takamatsu City Kagawa Prefecture on Oct. 24, 2014. Since the nest was also built in the ground, the nest could not be found except for the entrance thereof.
As the above-described Example 2(1), the nest entrance was disturbed by vibrating the black ball in contact with the nest entrance for about 10 seconds. The total number of attacking worker could not be counted, since the number of the worker which attacked to the control black ball using distilled water was much larger than that of the control in the experiment for Vespa mandarinia and the worker moved very rapidly. Thus, the video image was stopped every 30 seconds from the end of the nest entrance disturbance and the number of the worker which alighted on the hemispherical surface of the black ball for attack was counted. During 120 seconds for the experiment, the workers continued to strongly attack to the black ball as the workers constantly flew to and alighted on the black ball for attack and the worker number was not decreased. Such an attack was continued even after the end of the experiment at which the tip of the rod was moved to a place 5 m or more away from the nest, and the attack was finally not observed after about 20 minutes passed from the experiment was finished. Then, 2-phenylethanol was sprayed on the black ball to which Vespa simillima xanthoptera attacked as the test liquid example and the nest entrance was disturbed using the black ball. Although the worker which tried to come close to the black ball was observed, even the closest worker changed the direction in the air 10 to 20 cm from the surface of the black ball and flew away, and no worker which flew to and alighted on the surface of the black ball was found.

[2] = system: P. chinensis antennalis Pe'rez worker group; assay: Spray on worker group on nest; conditions: 9:02, 1 minute after spraying benzyl alcohol; 32 workers before
Experimental: The experiment involving a worker group of Polistes jokahamae jokahamae Radoszkowski on the exterior wall of a nest found in the campus of Faculty of Agriculture, Kochi University, located on 200 Otsu, Monobe, Nankoku City, Kochi Prefecture, was conducted on Jul. 13, 2015, and the experiment involving a worker of P. jokahamae jokahamae Radoszkowski which collected sap bled from sucking mark by adult Cryptotympana facialis of Zelkova tree stem planted in a private house in Fuseishi-cho, Takamatsu City, Kagawa Prefecture was conducted on July 19 to 22, 2015. In addition, the experiment involving a worker group of P. chinensis antennalis Pe'rez on the exterior wall of a nest found on a branch of a cheesewood planted at a bank of Noda pond located at Fuseishi-cho, Takamatsu City, Kagawa Prefecture was conducted on Jul. 30, 2015.
The experiment was conducted in accordance with the above-described Example 1(1) involving a Vespa mandarinia worker, distilled water as a control example spray and benzyl alcohol as a test liquid example spray were sequentially sprayed on a test object group or a test object worker by using a sprayer, and the behavior from immediately after spraying up to 1 minute later was respectively recorded. […]

Structure (SMILES)	total number of workers alighting on the black ball for attack (Vespa mandarinia worker; Vibration in contact with nest entrance)	total number of workers alighting on the black ball for attack (Vespa mandarinia worker; Vibration in the air before nest entrance)	distance from the surface of the black ball at which workers changed direction and flew away (Vespa mandarinia worker; in vivo)	number of worker alighted on hemispherical surface of black ball for attack ([1]; 30 s after disturbance)	number of worker alighted on hemispherical surface of black ball for attack ([1]; 60 s after disturbance)	number of worker alighted on hemispherical surface of black ball for attack ([1]; 90 s after disturbance)	number of worker alighted on hemispherical surface of black ball for attack ([1]; 120 s after disturbance)	Number of P. chinensis antennalis Pe'rez on nest [2]
OCCc1ccccc1 [2-Phenylethanol, 2-phenylethanol]	0	0	about 10 cm	0	0	0	0	–
OCc1ccccc1 [Benzyl alcohol, benzyl alcohol]	–	–	–	–	–	–	–	0
